System: CD33 CAR T cells
Assay: Inhibitor treatment during ex vivo culture
Type: cell-based, human
Details: for total CD8^+ CAR T cells / T cell expansion: 4 days of inhibitor treatment; for proliferating CD8^+ cells that remained CCR7^+: CellTrace Violet, control T cells about 41%
Experimental: Inhibitor treatment during ex vivo culture: CD33 CAR or control transduced T cells were labeled with CellTrace Violet (ThermoFisher) 5 days after their initial activation. […] Cells were analyzed 4 days later by flow cytometry.
Day 1: Separated PBMCs from apheresis ring of donor. Enriched human T cells by Pan T cell negative selection kit. Activate human T cells by anti-human CD3 and anti-human CD28 (1 ug/ml) coated plates overnight.
Day2: Transduced human T cells with anti-CD33 CAR gamma-retrovirus or MSCV control by retronectin coated non-tissue culture plate.
Day3: Resuspend the cells and plate them in the IL-2 RPMI medium in the tissue culture plate.
100U/ml IL-2 was added to cultures every 2 days. Cells were analyzed 4 days later by flow Cytometry.

[1] = 4 days, LY294002 10 μM, IC87114 10 μM, API-2 1 μM, rapamycin 50 nM, PP242 1 μM, DCA 10 mM, vs untreated CD33 CAR T cells

Row | SMILES | total CD8^+ CAR T cells / T cell expansion | percent of CD8^+ TN and TCM cells [1] | percentage of CCR7^+ cells among undivided CD8^+ cells (4 days) | CD8^+ TEM or TEFF cell numbers (4 days, 10 μM) | number of CD8^+ TN and TCM cells (4 days, same concentrations, vs untreated CD33 CAR T cells) | proliferating CD8^+ cells that remained CCR7^+ (4 days) | CD8^+ TEM or TEFF cell percent (Example 4: 4 days, different concentrations) | percent of CD8^+ TN and TCM cells (Example 4: 4 days, different concentrations, vs untreated CD33 CAR T cells) | number of CD8^+ TEFF cells (4 days, rapamycin 50 nM, PP242 1 μM)
1 | O=C(O)C(Cl)Cl [DCA, dichloroacetic acid] | significantly inhibited T cell expansion | increased |  |  |  |  |  |  | 
2 | Cc1ccccc1-n1c(Cn2cnc3c(N)ncnc32)nc2cccc(C)c2c1=O [IC87114] |  | increased significantly | did not alter | did not significantly alter | increased significantly | ~33% | significant decrease | increased significantly | 
3 | O=c1cc(N2CCOCC2)oc2c(-c3ccccc3)cccc12 [LY294002] |  |  |  |  |  | about 43% |  |  | 
4 | CC(C)n1nc(-c2cc3cc(O)ccc3[nH]2)c2c(N)ncnc21 [PP242] | substantial decrease | no detectable effect |  |  |  |  |  |  | decreased

Reference: patent US12053490B2, “Methods and compositions for treating CD33+ cancers and improving in vivo persistence of chimeric antigen receptor T cells” (ST. JUDE CHILDREN'S RESEARCH HOSPITAL, INC., priority 2017, dated 2024)
